Measured values reported in patent publication US8349886B2, “Nitrogenated 5-membered heterocyclic compound” (Takeda Pharmaceutical Company Limited, priority 2008, dated 2013).

Target: T1, GST-hLGK1 (human liver type GK) (Homo sapiens, UniProt P35557)
T1 construct: made in house; host or cells: Escherichia coli BL21 (Stratagene), plasmid pGEX6P-2/hLGK1
T1 sequence (P35557 1-464 isoform P35557-3): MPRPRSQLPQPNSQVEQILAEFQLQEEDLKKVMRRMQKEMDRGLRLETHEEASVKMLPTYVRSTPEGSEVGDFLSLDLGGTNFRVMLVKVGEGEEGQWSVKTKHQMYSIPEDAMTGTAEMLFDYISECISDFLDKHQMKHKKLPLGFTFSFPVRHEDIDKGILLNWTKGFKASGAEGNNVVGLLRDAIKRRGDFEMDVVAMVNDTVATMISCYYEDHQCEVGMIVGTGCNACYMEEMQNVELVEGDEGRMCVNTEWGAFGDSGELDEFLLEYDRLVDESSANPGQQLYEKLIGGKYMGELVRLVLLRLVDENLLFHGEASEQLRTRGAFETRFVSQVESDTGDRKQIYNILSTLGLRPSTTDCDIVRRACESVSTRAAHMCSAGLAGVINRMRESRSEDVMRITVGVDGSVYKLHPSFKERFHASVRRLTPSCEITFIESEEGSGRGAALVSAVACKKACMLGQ
Test: Measurement of GK activation value (Mant-ATP/Mant-ADP capillary electrophoresis)
Assay type: biochemical
Details: test compound 10 μmol/L; 5 mmol/L D-glucose; reaction rate as percentage of control group without test compound
Method: A plasmid DNA used for expression of a protein (GST-hLGK1) having GST (Glutathione S-transferase) added to the amino terminal of human liver type GK in Escherichia coli was prepared as follows.
BL21 strain (Stratagene) transformed with pGEX6P-2/hLGK1 obtained in Reference Example 1A was cultured with shaking in a 200 ml Erlenmeyer flask containing LB medium (50 ml) containing 100 μg/ml ampicillin at 37° C. for 14 hr. The cultured broth (25 ml) was diluted with LB medium (225 ml) containing 100 μg/ml ampicillin, and cultured with shaking in a 1 L Erlenmeyer flask at 37° C. for 1 hr. The Erlenmeyer flask after culture was cooled on ice, 100 mM Isopropyl-Thio-β-D-Galactopyranoside (IPTG) (125 μL) was added (final concentration 50 μM), and the cells were cultured at 17° C. for 20 hr. The cultures broth was centrifuged, and the obtained cells were disrupted by ultrasonication, and the object protein (GST-hLGK1) was purified from the supernatant using Glutathione Sepharose 4B (Amersham Biosciences).
GK enzyme reactions were performed in 50 mmol/L HEPES pH7.4, 200 mmol/L KCl, 5 mmol/L MgCl2, 2 mmol/L DTT, containing 50 μmol/L 2′-(or-3′)-O—(N-methylanthraniloyl)adenosine 5′-triphosphate (Mant-ATP) (Jena Bioscience GmbH), 5 mmol/L D-glucose, 5% DMSO and 6 μg/mL GST-hLGK1 obtained in Reference Example 2A in a total volume 50 μL. The reactions were performed in 384 well black plates (Nalge Nunc International K.K.). Prior to the reaction, the enzyme and test compound were incubated for 10 min at 37° C., and 25 mM D-glucose solution (10 μL) was added to start the reaction. The final concentration of the test compound is 10 μmol/L. After the incubation for 60 min at 37° C., the reaction was quenched by adding 25 μL of a quenching solution (containing 200 mM HEPES (pH 7.4), 20 mM MgCl2, 200 mM EDTA, 0.03% Triton-X 100, 0.3% Coating 3 reagent (Caliper Life Sciences, Inc.)).
Mant-ATP (substrate, 2′-(or-3′)-O—(N-methylanthraniloyl)adenosine 5′-triphosphate) and Mant-ADP (reaction resultant product) were separated from each well after the reaction by a microchip type capillary electrophoresis apparatus 250 HTS (Caliper Life Sciences, Inc.). The reaction rate [(reaction resultant product peak height)/(reaction resultant product peak height+substrate peak height)×100(%)] was calculated from the ratio of the substrate peak height and reaction resultant product peak height obtained by fluorescence detection (excitation wavelength 355 nm, measurement wavelength 460 nm) and used as the index of GK activity.
As a control group, the reaction rate was calculated in the same manner as above without the test compounds. […]

| Emax at 10 µM [%] | Structure (SMILES) |
| --- | --- |
| 138 | Cn1nc(C(CC2CCOCC2)c2ccc(-c3ncc(CO)s3)[nH]2)cc1S(C)(=O)=O (stereo not shown) [Example 2, [2-(5-{1-[1-methyl-5-(methylsulfonyl)-1H-pyrazol-3-yl]-2-(tetrahydro-2H-pyran-4-yl)ethyl}-1H-pyrrol-2-yl)-1,3-thiazol-5-yl]methanol] |
| 124 | COc1ccnc2c1cnn2C(CC1CCOCC1)c1ccc(-c2ccc(C(O)C(C)(C)O)cn2)[nH]1 (stereo not shown) [Example 3, 1-(6-{5-[1-(4-methoxy-1H-pyrazolo[3,4-b]pyridin-1-yl)-2-(tetrahydro-2H-pyran-4-yl)ethyl]-1H-pyrrol-2-yl}pyridin-3-yl)-2-methylpropane-1,2-diol] |
| 161 | CC(C)(O)C(O)c1ccc(-c2ccc(C(CC3CCOCC3)n3ncc4c(S(=O)(=O)C5CC5)cccc43)[nH]2)nc1 (stereo not shown) [Example 4, 1-[6-(5-{1-[4-(cyclopropylsulfonyl)-1H-indazol-1-yl]-2-(tetrahydro-2H-pyran-4-yl)ethyl}-1H-pyrrol-2-yl)pyridin-3-yl]-2-methylpropane-1,2-diol] |
| 162 | COc1ccc2c(cnn2C(CC2CCOCC2)c2ccc(-c3ccc(C(O)C(C)(C)O)cn3)[nH]2)c1S(=O)(=O)C1CC1 (stereo not shown) [Example 5, 1-[6-(5-{1-[4-(cyclopropylsulfonyl)-5-methoxy-1H-indazol-1-yl]-2-(tetrahydro-2H-pyran-4-yl)ethyl}-1H-pyrrol-2-yl)pyridin-3-yl]-2-methylpropane-1,2-diol] |
